Measured values: paper PMC5933782, “Molecular structures of cdc2-like kinases in complex with a new inhibitor chemotype” (PLoS ONE, 2018)
pIC50: −log10 of the molar value.

Legend:
[1] = molecular target: T1, CDK2/cyclin A (Homo sapiens, UniProt P24941); assay: radiometric protein kinase assay; assay type: biochemical; conditions: 15 μmol/L ATP; read-out: IC50 CDK2/cyclinA
T1 construct: made in house

[2] = molecular target: DYRK1A (Homo sapiens, UniProt Q13627); assay: radiometric protein kinase assay; assay type: biochemical; conditions: 15 μmol/L ATP; read-out: IC50 DYRK 1A
[3] = molecular target: T2, DYRK2 (Homo sapiens, UniProt Q92630); assay: radiometric protein kinase assay; assay type: biochemical; conditions: 15 μmol/L ATP; read-out: IC50 DYRK 2
T2 sequence (Q92630 1-601): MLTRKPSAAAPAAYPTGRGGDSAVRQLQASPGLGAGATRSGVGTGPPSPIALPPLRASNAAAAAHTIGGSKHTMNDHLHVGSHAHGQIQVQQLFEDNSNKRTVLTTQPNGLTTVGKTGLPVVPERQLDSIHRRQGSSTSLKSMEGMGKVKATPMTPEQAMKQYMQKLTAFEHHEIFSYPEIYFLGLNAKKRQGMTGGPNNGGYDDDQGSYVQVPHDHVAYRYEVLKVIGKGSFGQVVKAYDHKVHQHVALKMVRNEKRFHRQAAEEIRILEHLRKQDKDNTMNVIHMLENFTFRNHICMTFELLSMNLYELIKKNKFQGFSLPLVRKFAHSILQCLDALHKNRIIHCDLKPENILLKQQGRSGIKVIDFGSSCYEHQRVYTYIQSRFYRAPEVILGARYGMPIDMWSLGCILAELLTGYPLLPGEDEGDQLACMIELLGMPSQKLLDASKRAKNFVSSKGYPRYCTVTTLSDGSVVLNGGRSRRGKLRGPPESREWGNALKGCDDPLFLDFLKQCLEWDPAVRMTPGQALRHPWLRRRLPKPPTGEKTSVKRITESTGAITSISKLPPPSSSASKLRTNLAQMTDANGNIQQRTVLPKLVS

[4] = system: ACHN; assay: NCI cancer cell line screening; assay type: cell-based; conditions: Homo sapiens, Renal Cancer
Experimental: (§1) Being the most promising compound in terms of CLK1 inhibitory potency and selectivity, KuWal151 (8c) was tested in the National Cancer Institute cancer cell line screening on 57 tumor cell lines of different tissue origin [45]. With only a few exceptions, KuWal151 inhibited the growth of most cell lines in submicromolar concentrations. In Table 2 the cancer cell line inhibition data is listed with the expression rates of SPF45 and CLK1 as indicated in the Expression Atlas database (https://www.ebi.ac.uk/gxa/home). Apparently the cell lines with high levels of CLK1 encoding RNA are inhibited over average. […] However, the available data are not sufficient to construe a clear relationship between the expression levels of the putative target CLK1 and sensitivity of the cell lines against 8c. The same holds true for SPF45, an important substrate of CLK1 involved in splicing which is found to be overexpressed in many cancer cell lines. […] The lack of a straight relationship between CLK1 and/or SPF45 expression levels on the one hand and sensitivity against the CLK1 inhibitor 8c on the other hand may have various reasons, e.g. different uptake rates of the inhibitor by the cells or alternative intracellular targets. For verification of the results from the NCI screening, which is based on the in situ fixation of cells followed by staining with the protein-binding dye sulforhodamin B [47, 48], 8c was also tested on two cell lines of the NCI panel (HT-29 and MDA-MB-231) in a crystal violet assay.

[5] = system: CCRF-CEM; assay: NCI cancer cell line screening; assay type: cell-based; conditions: Homo sapiens, Leukemia
Experimental: as §1

[6] = system: COLO 205; assay: NCI cancer cell line screening; assay type: cell-based; conditions: Homo sapiens; COLO 205, Colon Cancer
Experimental: as §1

[7] = system: EKVX; assay: NCI cancer cell line screening; assay type: cell-based; conditions: Homo sapiens, Non-Small Cell Lung Cancer
Experimental: as §1

[8] = system: HL-60(TB); assay: NCI cancer cell line screening; assay type: cell-based; conditions: Homo sapiens, Leukemia
Experimental: as §1

[9] = system: HOP-92; assay: NCI cancer cell line screening; assay type: cell-based; conditions: Homo sapiens; HOP-92, Non-Small Cell Lung Cancer
Experimental: as §1

[10] = system: HS 578T; assay: NCI cancer cell line screening; assay type: cell-based; conditions: Homo sapiens, Breast Cancer
Experimental: as §1

[11] = system: LOX IMVI; assay: NCI cancer cell line screening; assay type: cell-based; conditions: Homo sapiens, Melanoma
Experimental: as §1

[12] = system: MDA-MB-468; assay: NCI cancer cell line screening; assay type: cell-based; conditions: Homo sapiens; MDA-MB-468, Breast Cancer
Experimental: as §1

[13] = system: MOLT-4; assay: NCI cancer cell line screening; assay type: cell-based; conditions: Homo sapiens; MOLT-4, Leukemia
Experimental: as §1

[14] = system: NCI-H226; assay: NCI cancer cell line screening; assay type: cell-based; conditions: Homo sapiens; NCI-H226, Non-Small Cell Lung Cancer
Experimental: as §1

[15] = system: NCI-H460; assay: NCI cancer cell line screening; assay type: cell-based; conditions: Homo sapiens; NCI-H460, Non-Small Cell Lung Cancer
Experimental: as §1

[16] = system: NCI-H522; assay: NCI cancer cell line screening; assay type: cell-based; conditions: Homo sapiens; NCI-H522, Non-Small Cell Lung Cancer
Experimental: as §1

[17] = system: NCI/ADR-RES; assay: NCI cancer cell line screening; assay type: cell-based; conditions: Homo sapiens, Ovarian Cancer
Experimental: as §1

[18] = system: OVCAR-5; assay: NCI cancer cell line screening; assay type: cell-based; conditions: Homo sapiens; OVCAR-5, Ovarian Cancer
Experimental: as §1

[19] = system: OVCAR-8; assay: NCI cancer cell line screening; assay type: cell-based; conditions: Homo sapiens; OVCAR-8, Ovarian Cancer
Experimental: as §1

[20] = system: RPMI-8226; assay: NCI cancer cell line screening; assay type: cell-based; conditions: Homo sapiens; RPMI-8226, Leukemia
Experimental: as §1

[21] = system: RXF 393; assay: NCI cancer cell line screening; assay type: cell-based; conditions: Homo sapiens; RXF 393, Renal Cancer
Experimental: as §1

[22] = system: SF-295; assay: NCI cancer cell line screening; assay type: cell-based; conditions: Homo sapiens; SF-295, CNS Cancer
Experimental: as §1

[23] = system: SK-MEL-5; assay: NCI cancer cell line screening; assay type: cell-based; conditions: Homo sapiens; SK-MEL-5, Melanoma
Experimental: as §1

[24] = system: SNB-19; assay: NCI cancer cell line screening; assay type: cell-based; conditions: Homo sapiens; SNB-19, CNS Cancer
Experimental: as §1

[25] = system: T-47D; assay: NCI cancer cell line screening; assay type: cell-based; conditions: Homo sapiens, T47D, Breast Cancer
Experimental: as §1

[26] = system: UACC-62; assay: NCI cancer cell line screening; assay type: cell-based; conditions: Homo sapiens; UACC-62, Melanoma
Experimental: as §1

[27] = molecular target: CLK4 (Mus musculus, UniProt O35493); assay: radiometric protein kinase assay
CLK4, sequence (O35493 whole entry): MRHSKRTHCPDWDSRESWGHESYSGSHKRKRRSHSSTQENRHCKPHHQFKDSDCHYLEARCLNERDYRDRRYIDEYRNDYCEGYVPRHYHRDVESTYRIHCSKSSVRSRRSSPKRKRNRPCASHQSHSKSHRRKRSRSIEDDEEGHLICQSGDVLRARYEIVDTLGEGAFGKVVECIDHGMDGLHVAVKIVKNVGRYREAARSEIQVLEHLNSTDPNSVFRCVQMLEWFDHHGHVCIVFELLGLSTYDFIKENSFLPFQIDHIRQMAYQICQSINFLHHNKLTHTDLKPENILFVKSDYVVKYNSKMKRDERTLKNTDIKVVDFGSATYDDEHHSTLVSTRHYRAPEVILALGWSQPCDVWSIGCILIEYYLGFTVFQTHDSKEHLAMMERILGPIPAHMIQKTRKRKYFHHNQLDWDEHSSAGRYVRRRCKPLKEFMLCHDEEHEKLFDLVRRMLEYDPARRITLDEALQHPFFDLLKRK

Work on `O=C1NCc2ccc3c(-c4cccc(Cl)c4)c[nH]c3c21` [8c, 3-(3-Chlorophenyl)-6,7-dihydropyrrolo[3,4-g]indol-8(1H)-one] yielded a pIC50 [1] of less than 5.00, a pIC50 [2] of less than 5.00 and a pIC50 [3] of less than 5.00. For the same molecule, the GI50 [4] was 0.372 µM, the GI50 [5] was 0.178 µM and the GI50 [6] was 0.209 µM. The GI50 [7] was 0.355 µM, the GI50 [8] was 0.141 µM and the GI50 [9] was 5.62 µM. For the same molecule, the GI50 [10] was 0.204 µM, the GI50 [11] was 0.245 µM and the GI50 [12] was 0.234 µM. It also gave a GI50 [13] of 0.257 µM, a GI50 [14] of 28.8 µM and a GI50 [15] of 0.209 µM. It also gave a GI50 [16] of 0.158 µM, a GI50 [17] of 0.178 µM and a GI50 [18] of 1.25 µM. For the same molecule, the GI50 [19] was 0.724 µM, the GI50 [20] was 0.288 µM and the GI50 [21] was 0.457 µM. The GI50 [22] was 0.224 µM, the GI50 [23] was 0.407 µM and the GI50 [24] was 0.389 µM. The GI50 [25] was 0.309 µM, the GI50 [26] was 0.275 µM and the pIC50 [27] was 7.55.
